Molecular target: T1, Menin (Homo sapiens, UniProt O00255)
T1 sequence (O00255 whole entry): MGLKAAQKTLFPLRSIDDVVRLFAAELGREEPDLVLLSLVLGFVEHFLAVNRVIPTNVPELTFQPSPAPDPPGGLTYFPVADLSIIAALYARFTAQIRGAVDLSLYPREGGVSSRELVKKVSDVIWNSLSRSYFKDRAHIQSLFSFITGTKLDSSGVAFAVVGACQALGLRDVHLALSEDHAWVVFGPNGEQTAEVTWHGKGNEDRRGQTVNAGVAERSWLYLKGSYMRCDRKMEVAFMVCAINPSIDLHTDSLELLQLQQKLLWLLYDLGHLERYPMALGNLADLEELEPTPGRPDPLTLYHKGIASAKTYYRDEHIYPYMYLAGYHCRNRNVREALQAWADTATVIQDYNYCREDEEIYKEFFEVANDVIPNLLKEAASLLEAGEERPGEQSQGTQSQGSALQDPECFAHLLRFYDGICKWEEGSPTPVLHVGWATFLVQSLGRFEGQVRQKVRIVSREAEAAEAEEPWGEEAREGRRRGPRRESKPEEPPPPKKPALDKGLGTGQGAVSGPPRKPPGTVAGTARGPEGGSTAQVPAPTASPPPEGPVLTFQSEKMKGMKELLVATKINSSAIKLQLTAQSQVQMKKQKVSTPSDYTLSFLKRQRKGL
Assay: Inhibition of FAM-probe binding to Menin (unknown origin) after 60 mins by fluorescence polarization competitive binding assay

IC50: 3500 nM
Ki: 1100 nM
SMILES: CC(=O)O[C@@H]1CCC[C@H]1[C@](C#N)(c1ccccc1)C1CCN(CC2CN(c3ccc(C#N)cc3)C2)CC1
